Test results reported in patent US11401271B2, “Fused heterocyclic compound, pyrazole-ring-containing fused heterocyclic compound, agricultural composition containing thereof, and method of using the composition” (SOUTH CHINA AGRICULTURAL UNIVERSITY, priority 2017, dated 2022).
Where two headings read alike, the source gives them in different places.

Key:
Format in all cases: in vivo
Plutella xylostella = assay: whole plant or invertebrate; settings: Plutella xylostella, read-out: Plutella xylostella Mortality (%) 500 ppm
How it was run: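 Cabbage leaf discs dipped 5 s in compound at 500 ppm (0.05% Tween-80 aqueous), air-dried, fed to about 35 2nd-instar larvae at 28° C., triplicate. Dead larvae counted after 24 h; mortality (%) corrected against Tween-80 control.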

Spodoptera exigua = assay: whole plant or invertebrate; settings: Spodoptera exigua, 24 h, read-out: Spodoptera exigua Mortality (%) 500 ppm
How it was run: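 Cabbage leaf discs dipped 5 s in 500 ppm compound (0.05% Tween-80 aqueous), air-dried, fed to about 35 2nd-instar larvae at 28° C, three replicates. Deaths counted at 24 h; mortality corrected against Tween-80 control.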

Aphis craccivora = assay: whole plant or invertebrate; settings: Aphis craccivora, 24 h, read-out: Aphis craccivora Mortality (%) 500 ppm
How it was run: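 Wingless adults feeding on bean sprouts were dipped with the sprouts for 5 s in 500 ppm compound in aqueous 0.05% Tween-80, air-dried, then held at 23° C. Dead aphids counted after 24 h, triplicate, with 0.05% Tween-80 as control. Mortality (%) = (control live − treated live)/control live × 100.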

Solenopsis invicta = assay: whole plant or invertebrate; settings: Solenopsis invicta, water test tube poison-feeding
How it was run: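 Fire ants fed compound by water test-tube poison-feeding at 100 ppm in aqueous 0.05% Tween-80/5% honey (from 10 g/L DMSO stock), kept at 25 °C. Live and dead ants counted at 24 and 72 h; mortality (%) calculated relative to live ants in the untreated control.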

Bombyx mori L. = assay: Toxicity test on 2nd-instar larvae of Bombyx mori L., leaf immersion feeding method; settings: 1000 ppm, 24 hours
How it was run: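 Second-instar silkworm larvae (~35 per vessel, 3 replicates) fed mulberry leaves dipped 5 s in 1000 ppm compound (0.05% Tween-80; DMSO stock diluted), held at 25 °C. Deaths counted after 24 hours; mortality % corrected against Tween-80 control survivors.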

Apis cernan = assay: Toxicity test on adult worker bees of Apis cernan, small beaker method; settings: 500 ppm, 48 hours
How it was run: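 Same-size adult Apis cernan workers, collected the test morning, exposed in groups of 15 to cotton soaked with 500 ppm test liquid (small beaker method). Kept sealed in a dark climate box; live and dead bees counted after 48 h.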

[1] = 24 h, read-out: Solenopsis invicta Mortality (%) 100 ppm 24 h, 100 ppm, 24 h
[2] = 72 h, read-out: Solenopsis invicta Mortality (%) 100 ppm 72 h, 100 ppm, 72 h

| SMILES | mortality at 500 ppm (Plutella xylostella) | mortality at 500 ppm (Spodoptera exigua) | mortality at 500 ppm (Aphis craccivora) | mortality at 100 ppm (Solenopsis invicta; [1]) | mortality at 100 ppm (Solenopsis invicta; [2]) | Toxicity determination Bombyx mori L. Mortality (%) (Bombyx mori L.) | Toxicity determination Apis cernan Mortality (%) (Apis cernan) |
| --- | --- | --- | --- | --- | --- | --- | --- |
| CNC(=O)C1(CC(=O)OC)Nc2c([S+]([O-])C(F)(F)F)c(C#N)nn2-c2c(Cl)cc(C(F)(F)F)cc21 (stereo not shown) [Compound C35] | 100% | 100% | 100% | 38% | 100% | 4% | 4% |
| N#Cc1cnn2c1NC(F)(CN)c1ccc(Cl)cc1-2 (stereo not shown) [Compound A22] | 96% | 100% | 100% | 30% | 97% | 0% | 3% |
| COC(=O)CC1(C(=O)OC)Nc2c([S+]([O-])C(F)(F)F)c(C#N)nn2-c2c(Cl)cc(C(F)(F)F)cc21 (stereo not shown) [Compound C37] | 100% | 100% | 100% | 20% | 100% | 6% | 8% |
| N#Cc1nn2c(c1[S+]([O-])C(F)(F)F)NC(CC(F)(F)F)(C(O)CO)c1cc(C(F)(F)F)cc(Cl)c1-2 (stereo not shown) [Compound C56] | 82% | 87% | 91% | 27% | 80% | 6% | 8% |
| CC1(C)Nc2c([S+]([O-])C(F)(F)F)c(C#N)nn2-c2ccccc21 (stereo not shown) [Compound A8] | 100% | 90% | 100% | 26% | 93% | 12% | 10% |
| CS(=O)(=O)Nc1ccc2c(c1)-n1cc(C#N)c(C#N)c1NC2(C#N)C#N [Compound B10] | 100% | 95% | 100% | 30% | 90% | 3% | 3% |
| Nc1cc2n(n1)-c1cnccc1C(F)(CC(F)(F)F)N2 (stereo not shown) [Compound A36] | 100% | 100% | 100% | 44% | 100% | 3% | 0% |
| C=CC1(CC(F)(F)F)Nc2c([S+]([O-])C(F)(F)F)c(C#N)nn2-c2c(Cl)cc(C(F)(F)F)cc21 (stereo not shown) [Compound C14] | 100% | 100% | 100% | 30% | 100% | 10% | 10% |
| C=CC1(CCl)Nc2c(-c3ccccc3C(F)(F)F)c(C#N)nn2-c2c(Cl)cc(C(F)(F)F)cc21 (stereo not shown) [Compound C9] | 100% | 100% | 100% | 39% | 100% | 8% | 9% |
| COc1ccc(-c2cn3c(c2C(C)=O)NC(C#N)(C#N)c2ccc([N+](=O)[O-])cc2-3)cc1 [Compound B3] | 100% | 100% | 100% | 24% | 100% | 0% | 3% |
